± gives the standard error.
Assays:
[1] = test system: 621-102 (TSC2-deficient); assay: relative viability vs DMSO; higher = less cytotoxic; conditions: serum: 10% FBS, 72 h
[2] = test system: 621-103 (TSC2-rescued); assay: as above; conditions: serum: 10% FBS, 72 h
[3] = test system: 621-102 (TSC2-deficient); assay: relative viability vs DMSO (fraction); higher = less cytotoxic; conditions: serum: 0.1% FBS, 72 h
[4] = test system: UMB1949 (TSC2-deficient); assay: as above; conditions: serum: 0.1% FBS, 72 h;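 further: renal angiomyolipoma cell lines screened in 384-well plates, viability normalized per plate to DMSO-treated cells, each plate carrying 50 nM rapamycin and 1 µM staurosporine controls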

SMILES | relative viability ([1]; 0.0001 µM) [%] | relative viability ([1]; 0.001 µM) [%] | relative viability ([1]; 0.01 µM) [%] | relative viability ([1]; 0.1 µM) [%] | relative viability ([1]; 1 µM) [%] | relative viability ([1]; 10 µM) [%] | relative viability ([2]; 0.0001 µM) [%] | relative viability ([2]; 0.001 µM) [%] | relative viability ([2]; 0.01 µM) [%] | relative viability ([2]; 0.1 µM) [%] | relative viability ([2]; 1 µM) [%] | relative viability ([2]; 10 µM) [%] | relative viability ([3]; 0.0128 nM) | relative viability ([3]; 0.064 nM) | relative viability ([3]; 0.32 nM) | relative viability ([3]; 1.6 nM) | relative viability ([3]; 8 nM) | relative viability ([3]; 40 nM) | relative viability ([3]; 200 nM) | relative viability ([3]; 1000 nM) | relative viability ([3]; 5000 nM) | relative viability ([4]; 0.0128 nM) | relative viability ([4]; 0.064 nM) | relative viability ([4]; 0.32 nM) | relative viability ([4]; 1.6 nM) | relative viability ([4]; 8 nM) | relative viability ([4]; 40 nM) | relative viability ([4]; 200 nM) | relative viability ([4]; 1000 nM) | relative viability ([4]; 5000 nM)
CC(C)C[C@H](NC(=O)CNC(=O)c1cc(Cl)ccc1Cl)B1OC(=O)C(CC(=O)O)(CC(=O)O)O1 [MLN9708] | 103 ± 2.1 | 104 ± 2.3 | 107 ± 4.3 | 21.9 ± 4.2 | 3.28 ± 0.3 | 2.38 ± 0.081 | 99.131 ± 0.04 | 98.8 ± 0.59 | 102 ± 2.2 | 4.63 ± 0.36 | 1.63 ± 0.029 | 0.886 ± 0.074 | 1.35 | 1.13 | 1.2 | 1.17 | 1 | 0.392 | 0.0117 | 0.00236 | 0.000667 | 1.05 | 1.02 | 1.01 | 1.02 | 1 | 0.0169 | 0.00139 | 0.00101 | 0.000797
O=c1cc(N2CCOCC2)oc2c(-c3cccc4c3sc3ccccc34)cccc12 [NU7441] | 61.9 ± 2.2 | 57.3 ± 5.1 | 78.8 ± 9.5 | 78.5 ± 3 | 88.7 ± 5.2 | 41.2 ± 0.43 | 105 ± 2.5 | 109 ± 1.9 | 111 ± 1.2 | 102.6 ± 0.65 | 101 ± 2.8 | 56.7 ± 1.8 | 1.29 | 0.918 | 0.935 | 0.718 | 0.623 | 0.724 | 0.674 | 0.227 | 0.00895 | 1.06 | 0.893 | 1.08 | 0.961 | 0.89 | 0.85 | 0.236 | 0.00964 | 0.00523
Nc1ncnc2c1c(-c1cccc(OCc3ccccc3)c1)cn2C1CC(CN2CCCC2)C1 (stereo not given) [NVP-ADW742] | 74.8 ± 0.9 | 61.6 ± 3.1 | 69.9 ± 9.3 | 66.3 ± 5.1 | 77.3 ± 6 | 70.1 ± 4.5 | 98.4 ± 1 | 96 ± 1.5 | 94.3 ± 2.1 | 96.7 ± 2.4 | 92.3 ± 6 | 59.3 ± 0.83 | 1.03 | 1.02 | 1.03 | 1.04 | 1.05 | 0.948 | 0.817 | 0.724 | 0.0714 | 1.02 | 1.04 | 1.13 | 1.14 | 1.07 | 1.09 | 0.995 | 0.273 | 0.0444
Cc1ccc(C(=O)Nc2cccc(C(F)(F)F)c2)cc1Nc1nc(-c2cccnc2)nc2c1cnn2C [NVP-BHG712] | 108 ± 1.1 | 108 ± 0.36 | 107 ± 2.5 | 102 ± 2.6 | 99.4 ± 2 | 33.9 ± 4 | 105 ± 1.7 | 104.74 ± 0.059 | 102 ± 1.1 | 95.4 ± 2.5 | 78.2 ± 1.3 | 17.4 ± 1.2 | 1.3 | 1.15 | 1.19 | 1.1 | 1.24 | 1.37 | 0.67 | 0.135 | 0.011 | 1.21 | 1.1 | 1.09 | 1.12 | 1.12 | 1.14 | 0.95 | 0.301 | 0.0076

Source: the supplement of paper PMC8960247
